Results as given in ChEMBL document CHEMBL1201862, “PubChem BioAssay data set” (2004).
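48-hour exposure; five concentrations; linearly interpolated endpoints. Here, GI50 denotes the concentration required for 50% inhibition of growth.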 Calls of active or inactive are those of the source. No stated cut-off is given here; in the data, active = GI50 up to about 1.1 µM and inactive = higher.

Assays:
Assay in all cases: inhibition of tumour cell growth, NCI panel, 48 h
MDA-N = system: MDA-N
MDA-MB-435 = system: MDA-MB-435
OVCAR-3 = system: OVCAR-3
KM12 = system: KM12
MOLT-4 = system: MOLT-4
SF-295 = system: SF-295
SNB-19 = system: SNB-19
UACC-62 = system: UACC-62
SF-268 = system: SF-268
SW-620 = system: SW-620
PC-3 = system: PC-3
CCRF-CEM = system: CCRF-CEM
OVCAR-4 = system: OVCAR-4
NCI-H23 = system: NCI-H23
DU-145 = system: DU-145
HOP-92 = system: HOP-92
MDA-MB-231 = system: MDA-MB-231
BT-549 = system: BT-549
K562 = system: K562
A498 = system: A498

Measured: GI50

CCOC(=O)c1ccc(/N=c2\oc3ccc(OC)cc3cc2-c2nc3ccccc3[nH]2)cc1
inactive: MDA-N 55 µM | MDA-MB-435 30.5 µM | OVCAR-3 > 100 µM | KM12 > 100 µM | MOLT-4 > 100 µM | SF-295 62.8 µM | SNB-19 42.9 µM | UACC-62 > 100 µM | SF-268 > 100 µM | SW-620 8.13 µM | PC-3 > 100 µM | CCRF-CEM > 100 µM | OVCAR-4 > 100 µM | NCI-H23 10.4 µM | DU-145 > 100 µM | HOP-92 > 100 µM | MDA-MB-231 53.7 µM | BT-549 > 100 µM | K562 72.8 µM

CN(C)c1cc[n+](-c2nc([N-]C(=O)C(F)(F)F)nc3c2ncn3C2CC(O)C(CO)O2)cc1 (configuration not stated)
inactive: MDA-N > 100 µM | MDA-MB-435 > 100 µM | OVCAR-3 > 100 µM | KM12 > 100 µM | MOLT-4 > 100 µM | SF-295 > 100 µM | SNB-19 > 100 µM | UACC-62 > 100 µM | SF-268 > 100 µM | SW-620 > 100 µM | PC-3 > 100 µM | CCRF-CEM > 100 µM | OVCAR-4 > 100 µM | NCI-H23 > 100 µM | DU-145 > 100 µM | MDA-MB-231 > 100 µM | BT-549 > 100 µM | A498 > 100 µM | K562 > 100 µM

CC(C)(CCC(C)(C)N1OC1c1ccccc1)N1OC1c1ccccc1 (configuration not stated)
inactive: MDA-N 39.9 µM | MDA-MB-435 32.8 µM | KM12 57.1 µM | SF-295 44.5 µM | SNB-19 47.5 µM | UACC-62 > 100 µM | SF-268 95.1 µM | SW-620 78 µM | PC-3 19.9 µM | CCRF-CEM 9.31 µM | OVCAR-4 86.3 µM | NCI-H23 55.3 µM | DU-145 88.7 µM | HOP-92 33.4 µM | MDA-MB-231 26.4 µM | BT-549 38.3 µM | A498 32 µM | K562 13.4 µM

C/C(=N\c1c2ccccc2nc2ccccc12)N(C)C
inactive: MDA-N 21.6 µM | MDA-MB-435 22.5 µM | OVCAR-3 14.4 µM | MOLT-4 12.2 µM | SF-295 14.8 µM | SNB-19 34 µM | UACC-62 15.2 µM | SF-268 27.4 µM | PC-3 14.6 µM | CCRF-CEM 8.87 µM | OVCAR-4 19 µM | NCI-H23 15.2 µM | DU-145 29 µM | HOP-92 10.6 µM | MDA-MB-231 14.6 µM | BT-549 25.8 µM | K562 3.91 µM

COCO[C@@H]1C[C@H]2C(=O)Nc3ccccc3C(=O)N2C1
inactive: MDA-N 39.2 µM | MDA-MB-435 53.7 µM | KM12 > 100 µM | SF-295 30.8 µM | SNB-19 77.4 µM | UACC-62 > 100 µM | SF-268 36.4 µM | SW-620 50.7 µM | PC-3 43.8 µM | OVCAR-4 > 100 µM | NCI-H23 51.4 µM | DU-145 48.8 µM | MDA-MB-231 > 100 µM | BT-549 35.3 µM | A498 38.5 µM

CN(C)Cc1ccc(-c2cc3onc(-c4ccccc4)c3c(=O)n2C)cc1
inactive: MDA-N 17.6 µM | MDA-MB-435 19.2 µM | OVCAR-3 37.4 µM | KM12 19.5 µM | MOLT-4 17.8 µM | SF-295 22.9 µM | SNB-19 57.8 µM | UACC-62 25.9 µM | SF-268 31.2 µM | SW-620 21.3 µM | PC-3 39.8 µM | OVCAR-4 84.9 µM | NCI-H23 29.6 µM | DU-145 28.8 µM | HOP-92 7.87 µM | MDA-MB-231 28.5 µM | BT-549 38.5 µM | A498 22.6 µM | K562 17.7 µM

O=C(O)C(Cc1c[nH]cn1)N1C(=O)c2ccccc2C1=O (configuration not stated)
inactive: MDA-N > 100 µM | MDA-MB-435 > 100 µM | OVCAR-3 50.5 µM | KM12 > 100 µM | MOLT-4 > 100 µM | SF-295 30 µM | SNB-19 > 100 µM | UACC-62 > 100 µM | SF-268 > 100 µM | SW-620 > 100 µM | PC-3 18.9 µM | OVCAR-4 > 100 µM | NCI-H23 > 100 µM | DU-145 > 100 µM | HOP-92 > 100 µM | MDA-MB-231 38 µM | BT-549 > 100 µM | A498 > 100 µM | K562 > 100 µM

CCOC(=O)c1cc(=O)c2cccc3c2n1CCS3
inactive: MDA-N > 100 µM | MDA-MB-435 > 100 µM | OVCAR-3 > 100 µM | KM12 > 100 µM | MOLT-4 > 100 µM | SF-295 > 100 µM | SNB-19 > 100 µM | UACC-62 > 100 µM | SF-268 > 100 µM | SW-620 > 100 µM | PC-3 > 100 µM | CCRF-CEM > 100 µM | NCI-H23 > 100 µM | DU-145 > 100 µM | HOP-92 > 100 µM | MDA-MB-231 > 100 µM | BT-549 42.9 µM | A498 83.8 µM

NC(CC(=O)Nc1cc(C(F)(F)F)ccc1Cl)=NO
inactive: MDA-N > 100 µM | MDA-MB-435 > 100 µM | OVCAR-3 > 100 µM | KM12 > 100 µM | MOLT-4 > 100 µM | SF-295 > 100 µM | SNB-19 > 100 µM | UACC-62 > 100 µM | SF-268 > 100 µM | SW-620 > 100 µM | PC-3 > 100 µM | OVCAR-4 > 100 µM | NCI-H23 > 100 µM | DU-145 > 100 µM | HOP-92 > 100 µM | MDA-MB-231 > 100 µM | BT-549 > 100 µM | A498 > 100 µM | K562 > 100 µM

O=C(/C=C/c1ccc(F)c(F)c1)OCCc1ccccc1
inactive: MDA-N 73.5 µM | MDA-MB-435 > 100 µM | OVCAR-3 > 100 µM | KM12 > 100 µM | MOLT-4 18 µM | SF-295 > 100 µM | SNB-19 > 100 µM | UACC-62 > 100 µM | SF-268 > 100 µM | SW-620 > 100 µM | PC-3 > 100 µM | CCRF-CEM 29.8 µM | OVCAR-4 91.8 µM | NCI-H23 72.9 µM | DU-145 > 100 µM | MDA-MB-231 > 100 µM | BT-549 > 100 µM | K562 51.3 µM

O=c1cc(CSc2c(-c3ccccc3)c(=O)n(-c3ccccc3)c(=S)n2-c2ccccc2)[nH]c(=O)[nH]1
inactive: MDA-N > 100 µM | MDA-MB-435 > 100 µM | OVCAR-3 > 100 µM | KM12 > 100 µM | MOLT-4 > 100 µM | SNB-19 > 100 µM | UACC-62 > 100 µM | SF-268 > 100 µM | SW-620 > 100 µM | PC-3 > 100 µM | CCRF-CEM > 100 µM | DU-145 > 100 µM | MDA-MB-231 > 100 µM | BT-549 > 100 µM | A498 > 100 µM | K562 > 100 µM

COc1ccc(C2SC(=N)Nc3c2c(C)nn3C(=O)c2ccc(Cl)cc2)cc1OC (configuration not stated)
inactive: MDA-N > 10 µM | MDA-MB-435 > 10 µM | OVCAR-3 > 10 µM | KM12 > 10 µM | MOLT-4 > 10 µM | SF-295 > 10 µM | SNB-19 > 10 µM | UACC-62 > 10 µM | SF-268 > 10 µM | SW-620 > 10 µM | PC-3 > 10 µM | CCRF-CEM > 10 µM | OVCAR-4 > 10 µM | NCI-H23 > 10 µM | DU-145 > 10 µM | HOP-92 > 10 µM | MDA-MB-231 > 10 µM | BT-549 > 10 µM | K562 > 10 µM

CC(NC(=O)c1ccc(OP(=O)(OCc2ccc([N+](=O)[O-])o2)N(C)CCCCCl)cc1)c1ccc(OCC2CCCCC2)c(C(N)=O)c1 (configuration not stated)
inactive: MDA-N 2.97 µM | MDA-MB-435 2.38 µM | OVCAR-3 2.57 µM | KM12 3.36 µM | MOLT-4 1.38 µM | SF-295 9.51 µM | SNB-19 16.4 µM | UACC-62 2.29 µM | SF-268 2.67 µM | SW-620 4.58 µM | PC-3 3.44 µM | OVCAR-4 2.35 µM | NCI-H23 5.19 µM | DU-145 4.27 µM | HOP-92 1.19 µM | MDA-MB-231 2.58 µM | BT-549 2.36 µM | A498 12.9 µM | K562 2.42 µM

O=[N+]([O-])c1ccc(C2=NOC(c3ccccc3)N2C23CC4CC(CC(C4)C2)C3)cc1 (configuration not stated)
inactive: MDA-N 26.7 µM | MDA-MB-435 21.8 µM | OVCAR-3 23.5 µM | KM12 27.4 µM | MOLT-4 17.5 µM | SF-295 26.8 µM | SNB-19 > 10 µM | UACC-62 20.8 µM | SF-268 59.6 µM | SW-620 35.3 µM | PC-3 20.5 µM | CCRF-CEM 21.7 µM | OVCAR-4 39.1 µM | NCI-H23 41 µM | DU-145 40 µM | MDA-MB-231 31.4 µM | BT-549 19.8 µM | A498 > 100 µM | K562 19.1 µM

CCN(CC)CCN(/C(=N/c1ccccc1)N1CCCCC1)c1ccccc1
inactive: MDA-N 1.78 µM | MDA-MB-435 3.91 µM | OVCAR-3 2.88 µM | KM12 5.2 µM | MOLT-4 2.99 µM | SF-295 3.62 µM | SNB-19 17.8 µM | UACC-62 6.12 µM | SF-268 27.6 µM | SW-620 6.05 µM | PC-3 2.72 µM | CCRF-CEM 4.49 µM | OVCAR-4 3.87 µM | NCI-H23 4.38 µM | DU-145 20.2 µM | MDA-MB-231 3.89 µM | BT-549 13.7 µM | K562 2.18 µM
